Assay results as given in patent US20250280861A1, “SWEETENER COMPOSITIONS” (Firmenich Incorporated, priority 2022, published 2025).
Read-outs that look alike come from different tables or passages of the source.

Biological target: T1, hT1R2/T1R3 taste receptor (Homo sapiens, UniProt Q7RTX0+Q8TE23)
T1 sequence (Q8TE23 20-839): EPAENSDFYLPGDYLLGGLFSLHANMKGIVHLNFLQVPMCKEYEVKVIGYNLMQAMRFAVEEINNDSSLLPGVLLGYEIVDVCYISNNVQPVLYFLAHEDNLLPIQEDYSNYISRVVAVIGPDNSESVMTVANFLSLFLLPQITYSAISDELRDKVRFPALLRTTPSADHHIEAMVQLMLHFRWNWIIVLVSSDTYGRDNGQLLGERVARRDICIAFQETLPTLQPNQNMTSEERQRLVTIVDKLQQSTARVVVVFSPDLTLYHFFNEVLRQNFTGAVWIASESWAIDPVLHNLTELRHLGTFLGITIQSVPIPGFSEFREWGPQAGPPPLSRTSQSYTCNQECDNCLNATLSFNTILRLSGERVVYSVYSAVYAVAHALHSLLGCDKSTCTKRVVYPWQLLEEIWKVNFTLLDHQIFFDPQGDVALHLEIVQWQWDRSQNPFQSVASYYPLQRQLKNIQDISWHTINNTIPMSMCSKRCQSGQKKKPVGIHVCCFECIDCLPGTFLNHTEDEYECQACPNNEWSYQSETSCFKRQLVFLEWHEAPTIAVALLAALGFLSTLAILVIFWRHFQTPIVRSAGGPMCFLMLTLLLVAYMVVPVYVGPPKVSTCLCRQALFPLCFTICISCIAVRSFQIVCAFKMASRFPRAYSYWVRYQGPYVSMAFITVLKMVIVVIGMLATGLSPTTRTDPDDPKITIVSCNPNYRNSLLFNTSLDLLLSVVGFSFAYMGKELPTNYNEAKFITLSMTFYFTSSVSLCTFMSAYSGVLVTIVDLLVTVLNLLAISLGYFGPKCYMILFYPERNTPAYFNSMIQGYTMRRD
T1 sequence (Q7RTX0 21-852): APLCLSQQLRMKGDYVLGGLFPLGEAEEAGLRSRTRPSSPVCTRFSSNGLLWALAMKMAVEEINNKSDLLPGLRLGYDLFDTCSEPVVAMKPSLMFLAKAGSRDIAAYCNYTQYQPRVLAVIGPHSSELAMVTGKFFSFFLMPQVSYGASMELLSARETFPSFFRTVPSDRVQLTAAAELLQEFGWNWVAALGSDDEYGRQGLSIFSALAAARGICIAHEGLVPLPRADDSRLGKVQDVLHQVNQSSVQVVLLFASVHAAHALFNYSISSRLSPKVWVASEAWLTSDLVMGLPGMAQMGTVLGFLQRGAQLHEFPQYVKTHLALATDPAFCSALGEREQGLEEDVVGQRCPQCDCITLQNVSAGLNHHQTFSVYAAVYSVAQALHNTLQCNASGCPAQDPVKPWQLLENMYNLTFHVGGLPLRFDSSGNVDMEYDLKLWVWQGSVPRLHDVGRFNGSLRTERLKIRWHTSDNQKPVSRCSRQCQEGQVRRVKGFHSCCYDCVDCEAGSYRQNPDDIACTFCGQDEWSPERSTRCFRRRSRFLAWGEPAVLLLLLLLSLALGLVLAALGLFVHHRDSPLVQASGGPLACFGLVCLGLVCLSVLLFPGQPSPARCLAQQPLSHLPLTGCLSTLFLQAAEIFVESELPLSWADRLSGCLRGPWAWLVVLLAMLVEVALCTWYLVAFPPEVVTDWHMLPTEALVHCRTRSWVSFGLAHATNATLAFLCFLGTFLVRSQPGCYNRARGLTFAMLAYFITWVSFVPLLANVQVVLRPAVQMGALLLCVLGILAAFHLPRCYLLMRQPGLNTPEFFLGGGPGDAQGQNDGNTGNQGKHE
Experiment: agonist activity against the hT1R2/T1R3 taste receptor (sweet receptor based assay)
Format: cell-based
Protocol: Compounds described in this application show moderate to potent agonist effect on the sweet receptor based assay. Potencies (EC50 values, e.g. see Tables 1-3) for agonist activity were measured against the hT1R2/T1R3 taste receptor. FIG. 1 exemplifies the data generated during the screening to determine EC50 values.

[1] = agonist activity, hT1R2/T1R3, read-out: Sweet EC50

Structure (SMILES)	EC50 [1]	EC50
COCc1ccccc1C1=CCN(C(C)(C)C(=O)NCC(C)C)CC1 [Compound 64]	> 10 µM	–
Cc1cccc(C2=CCN(C(C)(C)C(=O)NCC(C)C)CC2)c1F [Compound 65]	2.9 µM	–
CC(C)CNC(=O)C(C)(C)N1CC=C(c2cccc(CO)c2F)CC1 [Compound 66]	> 10 µM	–
CC(C)CNC(=O)C(C)(C)N1CC=C(c2ccccc2N(C)C)CC1 [Compound 67]	> 10 µM	–
COc1cccc(C2=CCN(C(C)(C)C(=O)NCC(C)C)CC2)c1F [Compound 68]	> 10 µM	–
COCc1ccc(C2=CCN(C(C)(C)C(=O)NCC(C)C)CC2)c(F)c1 [Compound 69]	> 10 µM	–
CC(C)CNC(=O)C(C)(C)N1CC=C(c2cncc(C#N)c2)CC1 [Compound 70]	> 10 µM	–
CC(C)CNC(=O)C(C)(C)N1CC=C(c2cccc(CN(C)C)c2)CC1 [Compound 71]	> 10 µM	–
CC(C)CNC(=O)C(C)(C)N1CC=C(c2cccc3c2OCO3)CC1 [Compound 72]	> 10 µM	–
CC(C)CNC(=O)C(C)(C)N1CC=C(c2ccccc2C(=O)N(C)C)CC1 [Compound 73]	> 10 µM	–
CC(C)CNC(=O)C(C)(C)N1CC=C(c2cccc(C(=O)N(C)C)c2)CC1 [Compound 74]	> 10 µM	–
Cc1ccncc1C1=CCN(C(C)(C)C(=O)NCC(C)C)CC1 [Compound 75]	> 10 µM	–
Cc1ncccc1C1=CCN(C(C)(C)C(=O)NCC(C)C)CC1 [Compound 76]	> 10 µM	–
Cc1cccc(C2=CCN(C(C)(C)C(=O)NCC(C)C)CC2)n1 [Compound 77]	> 10 µM	–
CC(C)CNC(=O)C(C)(C)N1CCC(C#N)(c2cccc(F)c2F)CC1 [Compound 79, 2-(4-cyano-4-(2,3-difluorophenyl)piperidin-1-yl)-N-isobutyl-2-methylpropanamide]	–	1.6 µM
CC(C)CNC(=O)C(C)(C)N1CCC(c2ccccc2)CC1 [Compound 80, N-isobutyl-2-methyl-2-(4-phenylpiperidin-1-yl)propanamide]	0.7 µM	–
CC(C)(C(=O)NC1CC1)N1CCC(c2ccccc2)CC1 [Compound 82]	10.4 µM	–
CC(C)(C(=O)NC1CCC1)N1CCC(c2ccccc2)CC1 [Compound 83]	> 10 µM	–
CC(C)(C(=O)NC1CCCC1)N1CCC(c2ccccc2)CC1 [Compound 84]	2.5 µM	–
CCCNC(=O)C(C)(C)N1CCC(c2ccccc2)CC1 [Compound 85]	5.5 µM	–
CC(C)[C@@H](C)NC(=O)C(C)(C)N1CCC(c2ccccc2)CC1 [Compound 86]	4.4 µM	–

Structure (SMILES)	EC50 [1]	EC50
CC(C)(C)CNC(=O)C(C)(C)N1CCC(c2ccccc2)CC1 [Compound 88]	4.2 µM	–
CC(C)CNC(=O)CN1CCC(c2ccccc2)CC1 [Compound 89]	6.7 µM	–
CC(C)CNC(=O)C(C)N1CCC(c2ccccc2)CC1 (stereo not shown) [Compound 90]	4.7 µM	–
CC(C)CNC(=O)C(C)(C)N1CCC(c2ccccc2F)CC1 [Compound 91]	0.4 µM	–
Cc1ccccc1C1CCN(C(C)(C)C(=O)NCC(C)C)CC1 [Compound 92]	1.6 µM	–
CC(C)CNC(=O)C(C)(C)N1CCC(c2cccc(F)c2F)CC1 [Compound 94]	0.14 µM	–
COCc1cccc(C2CCN(C(C)(C)C(=O)NCC(C)C)CC2)c1F [Compound 95]	0.5 µM	–
CC(C)CNC(=O)C(C)(C)N1CCC(c2cccc(F)c2)CC1 [Compound 96]	0.6 µM	–
CC(C)CNC(=O)C(C)(C)N1CCC(c2ccc(F)cc2)CC1 [Compound 97]	6.2 µM	–
Cc1cccc(C2CCN(C(C)(C)C(=O)NCC(C)C)CC2)c1F [Compound 98]	0.9 µM	–
CC(C)CNC(=O)C(C)(C)N1CCC(c2cccc(CO)c2F)CC1 [Compound 99]	4.7 µM	–
COc1cccc(C2CCN(C(C)(C)C(=O)NCC(C)C)CC2)c1F [Compound 100]	1.4 µM	–
CC(C)CNC(=O)C(C)(C)N1CCC(c2ccccc2N(C)C)CC1 [Compound 101]	> 10 µM	–
COCc1ccc(C2CCN(C(C)(C)C(=O)NCC(C)C)CC2)c(F)c1 [Compound 102]	> 10 µM	–
CC(C)CNC(=O)C(C)(C)N1CCC(c2cccc(CN(C)C)c2)CC1 [Compound 103]	> 10 µM	–
CC(C)CNC(=O)C(C)(C)N1CCC(c2cccc3c2OCO3)CC1 [Compound 104]	1.7 µM	–
CC(C)CNC(=O)C(C)(C)N1CCC(c2ccccc2C(=O)N(C)C)CC1 [Compound 105]	> 10 µM	–
CC(C)CNC(=O)C(C)(C)N1CCC(c2cccc(C(=O)N(C)C)c2)CC1 [Compound 106]	> 10 µM	–
Cc1ccncc1C1CCN(C(C)(C)C(=O)NCC(C)C)CC1 [Compound 107]	> 10 µM	–
Cc1ncccc1C1CCN(C(C)(C)C(=O)NCC(C)C)CC1 [Compound 108]	> 10 µM	–
Cc1cccc(C2CCN(C(C)(C)C(=O)NCC(C)C)CC2)n1 [Compound 109]	5.1 µM	–

Structure (SMILES)	EC50 [1]	EC50
COCc1ccccc1C1CCN(C(C)(C)C(=O)NCC(C)C)CC1 [Compound 110]	> 10 µM	–
COCc1cccc(C2CCN(C(C)(C)C(=O)NCC(C)C)CC2)c1 [Compound 111]	3.1 µM	–
CC(C)CNC(=O)C1(N2CCC(c3ccccc3)CC2)COC1 [Compound 112]	4.8 µM	–
COCC(C(=O)NCC(C)C)N1CCC(c2ccccc2)CC1 (stereo not shown) [Compound 113]	4.4 µM	–
COCC(C(=O)NCC(C)C)N1CCC(c2cccc(F)c2F)CC1 (stereo not shown) [Compound 114]	0.4 µM	–
CC(C)CNC(=O)C(C)(C)N1CCc2ccccc2C1 [Compound 116]	3.8 µM	–
CC(C)CNC(=O)C(C)(C)N1CCCC(c2ccccc2)CC1 (stereo not shown) [Compound 117]	10.9 µM	–
CC(C)CNC(=O)C(C)(C)N1CCC(C)(c2ccccc2)CC1 [Compound 118]	3.7 µM	–
CC(C)CNC(=O)C(C)(C)N1CCC(CO)(c2ccccc2)CC1 [Compound 119]	> 10 µM	–
COCC1(c2ccccc2)CCN(C(C)(C)C(=O)NCC(C)C)CC1 [Compound 120]	–	> 10 µM
CC(C)CNC(=O)C(C)(C)N1CCC2(CC1)OCc1ccccc12 [Compound 121]	5.6 µM	–
CC(C)CNC(=O)C(C)(C)N1CCC2(CC1)COc1ccccc12 [Compound 122]	2.5 µM	–
CC(C)CNC(=O)C(C)(C)N1CCC(O)(c2ccccc2)CC1 [Compound 123]	> 10 µM	–
CC(C)CNC(=O)C(C)(C)N1CCC(C#N)(c2ccccc2)CC1 [Compound 124]	–	2.2 µM
COCCNC(=O)C(C)(C)N1CCC(C#N)(c2cccc(F)c2F)CC1 [Compound 125]	–	> 10 µM
CC(C)(C)NC(=O)C(C)(C)N1CCC(C#N)(c2cccc(F)c2F)CC1 [Compound 126]	–	2 µM
CCC(C)(C)NC(=O)C(C)(C)N1CCC(C#N)(c2cccc(F)c2F)CC1 [Compound 127]	–	1.5 µM
CC(C)(C(=O)NC1CC1)N1CCC(C#N)(c2cccc(F)c2F)CC1 [Compound 128]	–	1.7 µM
COCC(C(=O)NCC(C)C)N1CCC(C#N)(c2cccc(F)c2F)CC1 (stereo not shown) [Compound 129]	–	4.3 µM
